The source of these data is US20220281848A1, “PYRAZOLE-SUBSTITUTED PYRROLIDINONES AS HERBICIDES” (FMC Corporation, priority 2019, published 2022).

Holding throughout (type): in vivo
What all share (conditions): after 13 d

In one experiment the test system is corn (Zea mays, ZEAMX). The experiment in a line: Test A pre-emergence, corn. The procedure, abridged: (§1)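 Damage rated 0–100 (100 = total) 13 d after spraying. Application was one day post-sowing at 15.625, 62.5 or 250 g/ha, formulated in 50:50 acetone/water plus 0.5% Tween 20. Pots held in glasshouse at 24/16 °C day/night, 14 h light, 65% humidity, watered twice daily.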

The subject of experiment [1] is barnyardgrass (Echinochloa crus-galli, ECHCG). Kind of experiment: Test A pre-emergence, barnyardgrass. The procedure, abridged:
as §1

For experiment [2], the system named is ivy-leaved morning glory (Ipomoea hederacea, IPOHE). The experiment in a line: Test A pre-emergence, ivy-leaved morning glory. The procedure, abridged: as §1
Experiment [3] deals with barnyardgrass (Echinochloa crus-galli, ECHCG). The experiment in a line: Test A post-emergence, barnyardgrass. The procedure, abridged: (§2)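 Visual damage rating (0 no damage to 100 total damage) was made 13 d after spraying. The spray was 15.625, 62.5 or 250 g/ha in 50:50 acetone/water with 0.5% Tween 20, applied to 8-day-old glasshouse plants kept at 24/16° C, 14 h light and 65% humidity.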

The subject of experiment [4] is ivy-leaved morning glory (Ipomoea hederacea, IPOHE). Kind of experiment: Test A post-emergence, ivy-leaved morning glory. The gist of the method: as §2

Consider `CCn1nc([C@H]2CN(C)C(=O)[C@@H]2C(=O)Nc2cccc(F)c2F)c2ccc(F)cc21` [Compound 4], for which the “damage to plant (100=total damage; 0=no damage) ZEAMX” value with corn (Zea mays, ZEAMX) (Pre-Emergence at 15.625 g/ha) was 0; in the experiment with corn (Zea mays, ZEAMX) (Pre-Emergence at 62.5 g/ha) it was 40; in the experiment on corn (Zea mays, ZEAMX) (Pre-Emergence at 250 g/ha), 80. Moreover, the “damage to plant (100=total damage; 0=no damage) ECHCG” value is recorded as 90 in experiment [1] (Pre-Emergence at 15.625 g/ha); 90 in experiment [1] (Pre-Emergence at 62.5 g/ha); 100 in experiment [1] (Pre-Emergence at 250 g/ha); 80 in experiment [3] (Post-Emergence at 15.625 g/ha); 90 in experiment [3] (Post-Emergence at 62.5 g/ha); 90 in experiment [3] (Post-Emergence at 250 g/ha). In addition, the “damage to plant (100=total damage; 0=no damage) IPOHE” value stood at 0 in experiment [2] (Pre-Emergence at 15.625 g/ha); 10 in experiment [2] (Pre-Emergence at 62.5 g/ha); 70 in experiment [2] (Pre-Emergence at 250 g/ha); 0 in experiment [4] (Post-Emergence at 15.625 g/ha); 0 in experiment [4] (Post-Emergence at 62.5 g/ha); 20 in experiment [4] (Post-Emergence at 250 g/ha).
With `CN1CC(c2cc(Cl)n(C)n2)C(C(=O)Nc2ccc(F)c(F)c2F)C1=O` (racemic) [Compound 31], the “damage to plant (100=total damage; 0=no damage) ZEAMX” value with corn (Zea mays, ZEAMX) (Pre-Emergence at 15.625 g/ha) is given as 0; in the experiment on corn (Zea mays, ZEAMX) (Pre-Emergence at 62.5 g/ha) it was 10; with corn (Zea mays, ZEAMX) (Pre-Emergence at 250 g/ha), 20. The “damage to plant (100=total damage; 0=no damage) ECHCG” value in experiment [1] (Pre-Emergence at 15.625 g/ha) was determined as 60; in experiment [1] (Pre-Emergence at 62.5 g/ha), 80; in experiment [1] (Pre-Emergence at 250 g/ha) it was 80; in experiment [3] (Post-Emergence at 15.625 g/ha), 50; in experiment [3] (Post-Emergence at 62.5 g/ha) it was 80; in experiment [3] (Post-Emergence at 250 g/ha) it was 80. Also, the “damage to plant (100=total damage; 0=no damage) IPOHE” value in experiment [2] (Pre-Emergence at 15.625 g/ha) is recorded as 0; in experiment [2] (Pre-Emergence at 62.5 g/ha) it was 0; in experiment [2] (Pre-Emergence at 250 g/ha) it was 10; in experiment [4] (Post-Emergence at 15.625 g/ha) it was 20; in experiment [4] (Post-Emergence at 62.5 g/ha) it was 30; in experiment [4] (Post-Emergence at 250 g/ha) it was 40.
As for `CN1CC(c2cnn(C)c2C(F)(F)F)C(C(=O)Nc2cccc(F)c2F)C1=O` (racemic) [Compound 25], the “damage to plant (100=total damage; 0=no damage) ZEAMX” value in the experiment on corn (Zea mays, ZEAMX) (Pre-Emergence at 15.625 g/ha) was 0; with corn (Zea mays, ZEAMX) (Pre-Emergence at 62.5 g/ha) it was 0; in the experiment with corn (Zea mays, ZEAMX) (Pre-Emergence at 250 g/ha) it was 20. Moreover, the “damage to plant (100=total damage; 0=no damage) ECHCG” value stood at 90 in experiment [1] (Pre-Emergence at 15.625 g/ha); 100 in experiment [1] (Pre-Emergence at 62.5 g/ha); 100 in experiment [1] (Pre-Emergence at 250 g/ha); 30 in experiment [3] (Post-Emergence at 15.625 g/ha); 70 in experiment [3] (Post-Emergence at 62.5 g/ha); 80 in experiment [3] (Post-Emergence at 250 g/ha). The “damage to plant (100=total damage; 0=no damage) IPOHE” value was determined as 0 in experiment [2] (Pre-Emergence at 15.625 g/ha); 0 in experiment [2] (Pre-Emergence at 62.5 g/ha); 0 in experiment [2] (Pre-Emergence at 250 g/ha); 10 in experiment [4] (Post-Emergence at 15.625 g/ha); 40 in experiment [4] (Post-Emergence at 62.5 g/ha); 40 in experiment [4] (Post-Emergence at 250 g/ha).
`CN1CC(c2cc(C(F)(F)F)n(C)n2)C(C(=O)Nc2ccccc2F)C1=O` (racemic) [Compound 9]: the “damage to plant (100=total damage; 0=no damage) ZEAMX” value in the experiment with corn (Zea mays, ZEAMX) (Pre-Emergence at 15.625 g/ha) was 50; in the experiment on corn (Zea mays, ZEAMX) (Pre-Emergence at 62.5 g/ha) it was 0; in the experiment on corn (Zea mays, ZEAMX) (Pre-Emergence at 250 g/ha), 20. Moreover, the “damage to plant (100=total damage; 0=no damage) ECHCG” value came to 80 in experiment [1] (Pre-Emergence at 15.625 g/ha); 90 in experiment [1] (Pre-Emergence at 62.5 g/ha); 90 in experiment [1] (Pre-Emergence at 250 g/ha); 60 in experiment [3] (Post-Emergence at 15.625 g/ha); 90 in experiment [3] (Post-Emergence at 62.5 g/ha); 90 in experiment [3] (Post-Emergence at 250 g/ha). Moreover, the “damage to plant (100=total damage; 0=no damage) IPOHE” value in experiment [2] (Pre-Emergence at 15.625 g/ha) came out at 50; in experiment [2] (Pre-Emergence at 62.5 g/ha), 0; in experiment [2] (Pre-Emergence at 250 g/ha), 0; in experiment [4] (Post-Emergence at 15.625 g/ha), 10; in experiment [4] (Post-Emergence at 62.5 g/ha), 0; in experiment [4] (Post-Emergence at 250 g/ha), 0.
